Data set [1] can be described thus: Pharmacokinetics after single s.c. dose in male SCID mice. The format is in vivo, mouse. To be noted: for peak plasma level: mice (as printed in summary b4); for half-life: male, SCID. From the text: Pharmacokinetics of 5 and 6 and metabolism of 5: The pharmacokinetic properties in male SCID mouse for the two lead compounds, 5 and 6 are studied following our recently described procedure for other CYP17 inhibitors (Nnane et al., “Pharmacokinetic profile of 3β-hydroxy-17-(1H-123-triazol-1-yl)androsta-5,16-diene (VN/87-1), a potent androgen synthesis inhibitor in mice”, J. Steroid Biochem. Molec. Biol., 2001, 71, 145-152; and Handratta et al., “Potent CYP17 inhibitors: improved syntheses, pharmacokinetics and anti-tumor activity in the LNCaP human prostate cancer model”, J. Steroid Biochem. Molec. Biol., 2004, 92, 155-165.
Pharmacokinetic Studies All animal studies are performed according to the guidelines and approval of the Animal Care Committee of the University of Maryland School of Medicine, Baltimore. Male SCID mice weighing 20-22 gm (8-10 weeks old) obtained from NCI, Frederick, Md., USA are maintained in a controlled environment of about 25° C., 50% relative humidity and 12 h of light and 12 h of dark cycles and allowed free access to food and water. Compounds 5 and 6 are formulated in 40% β-cyclodextrin in water and a single subcutaneous dose is given to mice. The animals are sacrificed at various times up to 6 h after drug administration and blood was obtained by cardiac puncture under light halothane (Ayerst, New York, N.Y., USA) anesthesia.
HPLC Analysis: Chromatographic separations and quantification of the steroids and the appropriate internal standards are achieved by a reverse phase HPLC method on a Waters® Novapak® C18 column (3.9×150 mm) protected by Waters® guard cartridge packed with pellicle C18 as previously described. Briefly, the HPLC system used in this study consisted of Waters® solvent delivery system, Waters® controller (Milford, Mass.), coupled to a Waters® 717^plus autosampler and a Waters® 996 photodiode array detector operated at 242.7 nm. The mobile phase composition is Water/MeOH/CH3CN (35:35:30, v/v/v+200 μl, of Et3N and 0.77 g of NH4OAc per 1000 mL of mobile phase) at a flow rate of 1.0 mL/min. The HPLC analysis is performed at ambient temperature and data acquisition and management ius achieved with a Waters® millennium chromatography manager.
Sample Preparation: Test tubes containing mouse plasma (200 μL), 5 or 6 and VN/85-1 (internal standard, 10 μL of 100 μg/mL), are extracted with diethyl ether (2×2 mL) using a vortex mixer for 3 minutes and centrifuged at 3000 g for 5 min. The organic layers are evaporated to dryness under a gentle stream of air. The residue is reconstituted in an aliquot of the mobile phase (100 μL) and filtered using 0.2 μm Teflon filters before HPLC analysis. Calibration Curve and HPLC Assay Validation: The calibration curves for 5 in plasma and tissue and for 6 in plasma are constructed by spiking varying amounts of the compounds into extraction tubes (duplicate) containing plasma (200 μL) and tissue preparations (200 μL) from untreated animals to give final concentrations of 0.1-100.0 μg/mL. Appropriate blank extraction tubes are also prepared and an aliquot of the internal standard is added into each extraction tube to give a final concentration of 5 μg/ml. The calibration samples are taken through the sample preparation procedure as described above. An aliquot of the reconstituted extract (50 μl) is injected into the HPLC system and the ratio of the peak areas for each analyte to that of the internal standard are plotted against concentrations of 5 or 6. The precision and accuracy of the assays are determined from a range of known concentrations of the inhibitors in blank plasma and taken through the HPLC procedure. The study is repeated on three separate occasions.
Data Analysis: Pharmacokinetic calculations are performed as previously described. The non-compartmental pharmacokinetic calculations are performed using WinNOnlin (Scientific Consulting Inc.). […]

For data set [2] the following is noted: male, SCID, mouse, in vivo, 1 h. As for the experimental part:
At the end of the experiment, the levels of 5 in the tumors and organs of the 5-treated mice are determined. […] This metabolite has the same retention time as the metabolite observed in the plasma (vide supra). […] The animals in the VN/124-1-treated group are sacrificed 1 h after the last VN/124-1 administration, and tumor, liver and testis are harvested and snap frozen in liquid nitrogen. Tissue samples are homogenized in phosphate buffer (pH=7.4, […]). […] The residue is reconstituted in 100 μL of the HPLC mobile phase, filtered through 0.2 μm Teflon filters and then analyzed by HPLC as described above.

Another data set concerns the target T1, CYP17 (Homo sapiens, UniProt P05093).
T1 sequence (P05093 1-508): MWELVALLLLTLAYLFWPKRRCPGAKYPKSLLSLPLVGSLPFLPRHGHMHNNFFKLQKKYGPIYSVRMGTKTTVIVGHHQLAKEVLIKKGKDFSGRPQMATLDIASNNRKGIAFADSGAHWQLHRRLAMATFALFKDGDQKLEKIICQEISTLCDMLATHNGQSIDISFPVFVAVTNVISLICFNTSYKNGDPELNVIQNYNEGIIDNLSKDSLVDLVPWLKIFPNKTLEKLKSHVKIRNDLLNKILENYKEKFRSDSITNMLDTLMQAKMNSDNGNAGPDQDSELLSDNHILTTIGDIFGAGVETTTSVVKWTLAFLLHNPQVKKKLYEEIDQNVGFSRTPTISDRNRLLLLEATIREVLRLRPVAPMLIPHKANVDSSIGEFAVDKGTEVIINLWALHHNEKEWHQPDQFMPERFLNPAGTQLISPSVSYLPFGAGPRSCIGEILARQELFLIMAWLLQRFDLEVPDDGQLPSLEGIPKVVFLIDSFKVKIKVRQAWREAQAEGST
The data set can be described thus: UV-vis difference spectroscopy, binding to heme iron of CYP17.

The next data set concerns LNCaP cells. Nature of the data set: LNCaP cell growth, WST-1 viability assay. The conditions noted are these: Homo sapiens, LNCaP, 168 h, read-out: IC50, inhibition of DHT-induced LNCaP cell proliferation, 1 nM DHT, 7 days, WST-1. In general terms: Formazan colour is commonly taken as a measure of viable cells.
In data set [3] the test system is LNCaP mutant AR-mediated transcription. Nature of the data set: Luciferase transactivation assay in LNCaP cells transfected with ARR2-Luc. The conditions noted are these: 18 h.
Experimental: Luciferase Transactivation Assay: Transcriptional activation assay is carried out as described previously by Kim et al., above, with minor modifications. […] The pRL-null (Promega) is used as the internal control. […] Luciferase activities are measured in triplicates by using dual luciferase assay system according to the manufacturer's instruction (Promega).
The bars represent the mean light units [counts per second (cps)/unit protein, i.e., relative luciferase activity] in triplicate wells from three separate experiments.
Setting [4] is: mouse, plasma, sc, 50 mg/kg, 50 mg/kg s.c., male SCID mice.

Molecules are shown by their SMILES. Where two headings read alike, the source gives them in different places.

Turning to `C[C@]12CCC(=O)C=C1CC[C@@H]1[C@@H]2CC[C@]2(C)C(n3cnc4ccccc43)=CC[C@@H]12` [Compound 6, 17-(1H-benzimidazol-1-yl)androsta-4,16-diene-3-one], the melting point lay in the range of 201 to 204 °C. In data set [1] (50 mg/kg s.c., male SCID mice), this molecule yielded a Kel of 0.0183 ± 0.004 min⁻¹ and a Vd of 4207.24 ± 6.25 mL/kg. Also, in data set [1] (50 mg/kg s.c., male SCID mice, plasma), the t1/2 is given as 37.93 ± 1.15 min. Besides, the peak plasma level in data set [1] (50 mg/kg s.c.) stood at 5.15 ng/mL. Moreover, the “metabolism of the compound detected in plasma” value in data set [1] (in vivo pharmacokinetics in mice) is on record as “did not detect any metabolism(s)”. In data set [1] (setting [4]), this molecule showed a half-life of 39.9 min. Moreover, the AUC in data set [1] (mouse, plasma, sc, 50 mg/kg s.c., male SCID mice, read-out: AUC (converted)) is 10.8 µg·h/mL. For the same molecule, the Cmax in data set [1] (mouse, plasma, sc, 50 mg/kg s.c., male SCID mice, read-out: Cmax) was 5.15 ± 0.09 µg/mL. In data set [1] (mouse, plasma, sc, 50 mg/kg s.c., male SCID mice, read-out: MRT (converted)), the MRT is 80 min. Further, in data set [1] (mouse, plasma, sc, 50 mg/kg s.c., male SCID mice, read-out: Tmax (converted)), the Tmax is 60 min. The “time after administration at which compound was not detected in plasma” value in data set [1] (s.c. administration, mice) is reported as 8 h.

Take `C[C@]12CC[C@H](O)CC1=CC[C@@H]1[C@@H]2CC[C@]2(C)C(n3cnc4ccccc43)=CC[C@@H]12` [Compound 5, 3β-Hydroxy-17-(1H-benzimidazol-1-yl)androsta-5,16-diene]: in data set [1] (50 mg/kg s.c., male SCID mice), the AUC was determined as 24 ± 1.004 µg·h/mL, the Cmax is 16.82 ± 0.37 µg/mL, the mean residence time MRT is on record as 65.40 ± 0.60 min and the Tmax is 30.0 min. The same molecule gave a Vd in data set [1] (50 mg/kg s.c., male SCID mice) of 2098.99 ± 4. mL/kg. The peak plasma level in data set [1] (50 mg/kg s.c.) amounted to 16.82 ng/mL. In addition, in data set [1] (100 mg/kg s.c., male SCID mice), the AUC is 30.2323 ± 0.1823 µg·h/mL, the Cmax was found to be 32.23 ± 0.34 µg/mL, the MRT is listed as 60.46 ± 1.54 min and the Tmax worked out at 30.00 ± 0.0 min. The Vd in data set [1] (100 mg/kg s.c., male SCID mice) is reported as 113276.39 ± 26.71 mL/kg. The same molecule yielded a half-life in data set [1] (setting [4]) of 44.2 min. In data set [1] (mouse, plasma, sc, 100 mg/kg, 100 mg/kg s.c., male SCID mice), the half-life is 36.6 ± 1.6 min. In data set [1] (s.c. administration, male SCID mice), the “clearance from the systemic circulation” value is 1.98614 L/h/kg. In addition, the “concentration in the s.c. tumors” value in data set [2] is recorded as 39.0±8.4 μg/mg tissue. In addition, the “type of difference spectrum induced” value at CYP17 is on record as “type II difference spectrum”. The IC50 with LNCaP cells came to 6 µM. Also, in data set [3] (0.1 and 10.0 μM, without DHT), the “effect on luciferase activity, compound alone” value is reported as “no effect”. Besides, the “effect on luciferase expression induced by 1.0 nM DHT” value in data set [3] (with 1.0 nM DHT) was “decreased in a concentration-dependent manner”.

Usually half-life stands for the time needed for the level to fall by half in the phase considered. A lower half-life goes with rapid decline. By AUC is commonly meant concentration integrated over time. As a reminder, the Cmax is the highest concentration seen after dosing. By MRT is commonly meant a mean duration of stay, worked out from the concentration-time curve. In general, Tmax refers to the time from dosing to the highest level. One may read the melting point as the temperature of the solid-liquid transition.
